Measured values: patent publication US20090318379A1, “Statins for the Treatment of Viral Influenza Infections” (priority 2006, published 2009)
Like-named read-outs stand apart in the source and are kept apart here.

What was measured:
[1] = tested on: MDCK cells
[2] = tested on: Influenza A H5N1; assay type: cell-based, Influenza A H5N1 (isolated in 1997 from human)
[3] = tested on: Influenza A H5N1; assay type: cell-based, Influenza A H5N1 (isolated in 1997 from human); remark: listed apart in the source
[4] = tested on: MDCK cells; remark: listed apart in the source
[5] = tested on: Influenza A H5N1; assay type: cell-based, Influenza A H5N1 (isolated in 1997 from human); remark: listed apart in the source
[6] = tested on: MDCK cells; remark: listed apart in the source

NC(=O)c1ncn([C@@H]2O[C@H](CO)[C@@H](O)[C@H]2O)n1 [RIBAVIRIN, Ribavirin, reference compound]
Cytotoxicity [1]: No | No. of plaque [2]: 0 | No. of plaque 1st well [3]: 134 | No. of plaque 2nd well [3]: 131 | No. of plaque 3rd well [3]: 132 | Cytotoxicity [4]: No | Number of plaques [5]: 11000 | Cytotoxicity in virus yield reduction assay [6]: No
